This is an account of results in publication PMC8802628, “Selective activation of PFKL suppresses the phagocytic oxidative burst” (Cell, 2021).

The term Km denotes the substrate concentration at which the rate is half of its maximum.

Series [1] deals with PMNs. As to the kind of experiment: ROS detection assay (ROS-Glo) in neutrophils. The conditions noted are these: over 2 h. It is filed as cell-based, human. The method, then: ROS were measured using the ROS-Glo bioluminescent assay (Promega) for the direct detection of H2O2. Briefly, neutrophils (2 × 10^4) were plated in white 96-well plates (Greiner) in high glucose DMEM medium. Cells were cultured with DMSO vehicle, 0.5 μM NA-11, 5 μM LDC7559, 100 μM apocynin, or 200 μM thionicotinamide for 30 min, and then stimulated with 50 nM PMA or treated with 10 μg/mL zymosan beads, pre-opsonized in 20% serum for 30 min. Luminescence, after the addition of H2O2 substrate solution of 20 min, and then ROS-Glo detection solution for 20 min, was recorded on a plate reader (Envision).

A further series deals with E. coli. Kind of series: Phagocytosis assay: E. coli C.F.U. recovered from PMNs. It is filed as cell-based, human. The note with it: neutrophils pretreated 30 min. The method, then:
Neutrophils (1 × 10^6) were cultured in 6-well tissue in RPMI medium containing DMSO vehicle, 0.5 μM NA-11, 0.5 μM NA-4, 100 μM Apocynin or 100 μM thionicotinamide (TN) for 30 min. E. coli grown in LB broth overnight (2 mL) were opsonized with human serum (1 mL pooled from three donors) for 1 h at room temperature. Opsonized bacteria were washed with PBS, resuspended in LB broth to an OD600of 0.1 and then added to cultured neutrophils at an MOI of 1 for 30 min. Cells were washed with medium three times and then cultured with 300 μg/mL gentamicin for 2 h to kill any extracellular bacteria. Cells were then washed again, twice with medium and once with PBS. To release phagocytosed bacteria, neutrophils were lysed in 0.05% saponin in PBS. Lysates were passed through a 25’ gauge needed several times and the number of viable phagocytosed bacteria was determined by colony counting.

The subject of series [2] is PMNs. Kind of series: Phagocytosis of zymosan particles by PMNs. In kind it is cell-based, human. The note with it: neutrophils, zymosan 2 h. The method, then: Figure S7. NA-11 activates PFKL to prevent the oxidative burst and impair neutrophil defenses, related to Figures 4 and 6
(A) PFK1 activity in PMN lysates. Cells were pretreated with 0.5 mM NA-11, 5 mM LDC7559, 100 mM apocynin, 200 mM thionicotinamid e (TN), 1 mM MEK inhibitor U0126, or DMSO vehicle for 30 min, or 1 mM proteasome inhibitor bortezomib for 1 h, and then activated with 50 nM PMA for 30 min where indicated. Bars represent the mean ± s.d. of cells from 3 donors. (B) NADH:NAD+ ratio in PMA-activated PMNs. Cells were pretreated with 0.5 mM NA-11 or DMSO vehicle for 30 min, and then activated with 50 nM PMA for 30 min. Data are the mean ± s.d. of cells from 3 donors. (C) Immunolabeling of citrullinated histone H3 (magenta) and myeloperoxidase (red) in PMNs pretreated with 0.5 mM NA-11 or DMSO vehicle for 30 min and then stimulated for 4 h with 50 nM PMA, 10 mg/mL extracellular LPS, 0.5 mg/mL cholesterol crystals, or 25 mM nigericin. Chromatin is stained green. Scale bar, […]. Results are representative of 3 independent experiments.
(D) Fluorescence micrographs of PMNs pretreated with 0.5 mM NA-11, 200 mM thionicotinamide (TN), 0.5 mM NA-4, or DMSO vehicle for 30 min, and then incubated with serum-opsonized Texas Red-conjugated zymosan particles (10 mg/mL) for 2 h. […]

Substrate in series [3]: O=C(CO)[C@@H](O)[C@H](O)[C@H](O)COP(=O)(O)O
As to the kind of experiment: Recombinant PFKL3Mut activity assay. It is filed as biochemical, human. The note with it: other: PFKL3Mut, pH 7.5, 225 μM ATP, 25.0 °C. The text has this: (§1) Recombinant N-terminal His-tagged human PFKL (NP_002617), PFKM (NP_000280), and PFKP (NM_002627.4) were generated as described ([Webb et al., 2015], [2017]). Point mutants of PFK1 were generated using the QuikChange Lightning kit (Aligent).
(§2) His-tagged PFK1 was expressed and purified as described with slight modifications ([Webb et al., 2015], [2017]). Briefly, baculovirus was generated using the Bac-to-Bac Expression system (Invitrogen). PFK1 was expressed in 2-5 × 10^6 sf9 cells at a multiplicity of infection of two for 48 h. […] Protein was quantified using a Bradford Protein Assay kit (ThermoFisher Scientific), and aliquotes frozen in liquid nitrogen for storage at −80°C.
(§3) PFK1 activity was determined using the rate of FBP production via an auxiliary enzyme assay adapted to a 96-well format ([Brüser et al., 2012]; [Webb et al., 2015]). […] For assays containing FBP, the rate of ADP production was determined using the auxiliary enzymes pyruvate kinase (PK) and lactate dehydrogenase (LDH) (MilliporeSigma) in a buffer containing 250 μM phosphoenolpyruvic acid, […] NADH, 50 mM HEPES pH 7.5, 100 mM KCl, 1 mM DTT, and effector concentrations as described in the text. […] Absorbance at 340 nm was measured using a Varioskan LUX Multimode microplate reader (ThermoFisher). […]

Substrate in series [4]: O=C(CO)[C@@H](O)[C@H](O)[C@H](O)COP(=O)(O)O
As to the kind of experiment: Recombinant PFKM activity assay. It is filed as biochemical, human. The conditions noted are these: other: PFKM wild type, pH 7.0, 250 μM ATP, 25.0 °C.
Excerpt: as §1, §2, §3

Substrate in series [5]: O=C(CO)[C@@H](O)[C@H](O)[C@H](O)COP(=O)(O)O
Kind of series: Recombinant PFKM+pocket activity assay. In kind it is biochemical, human. The conditions noted are these: other: PFKM+pocket, pH 7.0, 250 μM ATP, 25.0 °C.
Excerpt: as §1, §2, §3

Consider `NC(=S)c1cccnc1` [TN, thionicotinamide, reference compound], for which, in the series on PMNs [1], the “ROS production during phagocytosis of opsonized zymosan” value is on record as “kept ROS production at basal levels”. For the same molecule, the “killing of phagocytosed bacteria (bacterial colonies recovered)” value in the series with E. coli was “less efficient killers of phagocytosed bacteria”. Also, the “phagocytosis (intracellular zymosan particles)” value with PMNs [2] is “neither NA-11 nor TN affected phagocytosis”.

B1: PFKL (K315R, V545L, and V582M), PFKL3Mut (Homo sapiens; K315R/V545L/V582M) (protein)
chain: MAAVDLEKLRASGAGKAIGVLTSGGDAQGMNAAVRAVTRMGIYVGAKVFLIYEGYEGLVEGGENIKQANWLSVSNIIQLGGTIIGSARCKAFTTREGRRAAAYNLVQHGITNLCVIGGDGSLTGANIFRSEWGSLLEELVAEGKISETTARTYSHLNIAGLVGSIDNDFCGTDMTIGTDSALHRIMEVIDAITTTAQSHQRTFVLEVMGRHCGYLALVSALASGADWLFIPEAPPEDGWENFMCERLGETRSRGSRLNIIIIAEGAIDRNGKPISSSYVKDLVVQRLGFDTRVTVLGHVQRGGTPSAFDRILSSRMGMEAVMALLEATPDTPACVVTLSGNQSVRLPLMECVQMTKEVQKAMDDKRFDEATQLRGGSFENNWNIYKLLAHQKPPKEKSNFSLAILNVGAPAAGMNAAVRSAVRTGISHGHTVYVVHDGFEGLAKGQVQEVGWHDVAGWLGRGGSMLGTKRTLPKGQLESIVENIRIYGIHALLVVGGFEAYEGVLQLVEARGRYEELCIVMCVIPATISNNVPGTDFSLGSDTALNAAMESCDRIKQSASGTKRRVFIVETMGGYCGYLATMTGIAVGADAAYVFEDPFNIHDLKVNVEHMTEKMKTDIQRGLVLRNEKCHDYYTTEFLYNLYSSEGKGVFDCRTNVLGHLQQGGAPTPFDRNYGTKLGVKAMLWLSEKLREVYRKGRVFANAPDSACVIGLKKKAVAFSPVTELKKDTDFEHRMPREQWWLSLRLMLKMLAQYRISMAAYVSGELEHVTRRTLSMDKGF
notes: made in house; host or cells: Sf9 insect cells (baculovirus)
Regarding B1, the Km in series [3] was 570 ± 60 µM.

B2: human PFKM (Homo sapiens) (protein)
chain: MTHEEHHAAKTLGIGKAIAVLTSGGDAQGMNAAVRAVVRVGIFTGARVFFVHEGYQGLVDGGDHIKEATWESVSMMLQLGGTVIGSARCKDFREREGRLRAAYNLVKRGITNLCVIGGDGSLTGADTFRSEWSDLLSDLQKAGKITDEEATKSSYLNIVGLVGSIDNDFCGTDMTIGTDSALHRIMEIVDAITTTAQSHQRTFVLEVMGRHCGYLALVTSLSCGADWVFIPECPPDDDWEEHLCRRLSETRTRGSRLNIIIVAEGAIDKNGKPITSEDIKNLVVKRLGYDTRVTVLGHVQRGGTPSAFDRILGSRMGVEAVMALLEGTPDTPACVVSLSGNQAVRLPLMECVQVTKDVTKAMDEKKFDEALKLRGRSFMNNWEVYKLLAHVRPPVSKSGSHTVAVMNVGAPAAGMNAAVRSTVRIGLIQGNRVLVVHDGFEGLAKGQIEEAGWSYVGGWTGQGGSKLGTKRTLPKKSFEQISANITKFNIQGLVIIGGFEAYTGGLELMEGRKQFDELCIPFVVIPATVSNNVPGSDFSVGADTALNTICTTCDRIKQSAAGTKRRVFIIETMGGYCGYLATMAGLAAGADAAYIFEEPFTIRDLQANVEHLVQKMKTTVKRGLVLRNEKCNENYTTDFIFNLYSEEGKGIFDSRKNVLGHMQQGGSPTPFDRNFATKMGAKAMNWMSGKIKESYRNGRIFANTPDSGCVLGMRKRALVFQPVAELKDQTDFEHRIPKEQWWLKLRPILKILAKYEIDLDTSDHAHLEHITRKRSGEAAV
notes: as for B1
B2: the Km in series [4] came out at 610 ± 50 µM.

B3: PFKM+pocket (R315 to lysine) (Homo sapiens; R315K) (protein)
chain: MTHEEHHAAKTLGIGKAIAVLTSGGDAQGMNAAVRAVVRVGIFTGARVFFVHEGYQGLVDGGDHIKEATWESVSMMLQLGGTVIGSARCKDFREREGRLRAAYNLVKRGITNLCVIGGDGSLTGADTFRSEWSDLLSDLQKAGKITDEEATKSSYLNIVGLVGSIDNDFCGTDMTIGTDSALHRIMEIVDAITTTAQSHQRTFVLEVMGRHCGYLALVTSLSCGADWVFIPECPPDDDWEEHLCRRLSETRTRGSRLNIIIVAEGAIDKNGKPITSEDIKNLVVKRLGYDTRVTVLGHVQRGGTPSAFDRILGSKMGVEAVMALLEGTPDTPACVVSLSGNQAVRLPLMECVQVTKDVTKAMDEKKFDEALKLRGRSFMNNWEVYKLLAHVRPPVSKSGSHTVAVMNVGAPAAGMNAAVRSTVRIGLIQGNRVLVVHDGFEGLAKGQIEEAGWSYVGGWTGQGGSKLGTKRTLPKKSFEQISANITKFNIQGLVIIGGFEAYTGGLELMEGRKQFDELCIPFVVIPATVSNNVPGSDFSVGADTALNTICTTCDRIKQSAAGTKRRVFIIETMGGYCGYLATMAGLAAGADAAYIFEEPFTIRDLQANVEHLVQKMKTTVKRGLVLRNEKCNENYTTDFIFNLYSEEGKGIFDSRKNVLGHMQQGGSPTPFDRNFATKMGAKAMNWMSGKIKESYRNGRIFANTPDSGCVLGMRKRALVFQPVAELKDQTDFEHRIPKEQWWLKLRPILKILAKYEIDLDTSDHAHLEHITRKRSGEAAV
notes: as for B1
As for B3, in series [5], the Michaelis-Menten constant (Km) was 1410 ± 80 µM.
